Tests used:
Test in all cases: KINOMEscan (scanMAX) competition binding at […], less than […] of control
Conditions in all cases: read-out: % of control at 100 nM
[1] = biological target: DYRK1A (Homo sapiens, UniProt Q13627)
[2] = biological target: T1, MEK5 (Homo sapiens, UniProt Q13163)
T1 construct: gene MAP2K5
T1 sequence (Q13163 1-448): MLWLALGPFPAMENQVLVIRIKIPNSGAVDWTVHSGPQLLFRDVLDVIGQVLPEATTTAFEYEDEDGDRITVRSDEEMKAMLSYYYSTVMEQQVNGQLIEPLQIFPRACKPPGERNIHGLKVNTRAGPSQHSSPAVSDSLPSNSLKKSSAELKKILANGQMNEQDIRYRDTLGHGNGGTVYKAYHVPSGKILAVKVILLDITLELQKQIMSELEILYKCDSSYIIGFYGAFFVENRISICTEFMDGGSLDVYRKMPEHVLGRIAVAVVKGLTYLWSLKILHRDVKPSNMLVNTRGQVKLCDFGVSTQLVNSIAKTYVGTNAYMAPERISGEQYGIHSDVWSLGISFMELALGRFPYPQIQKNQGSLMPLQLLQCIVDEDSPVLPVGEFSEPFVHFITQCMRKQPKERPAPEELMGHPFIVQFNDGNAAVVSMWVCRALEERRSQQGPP

[3] = biological target: CLK2 (Homo sapiens, UniProt P49760)
Sequence of CLK2 (P49760 whole entry): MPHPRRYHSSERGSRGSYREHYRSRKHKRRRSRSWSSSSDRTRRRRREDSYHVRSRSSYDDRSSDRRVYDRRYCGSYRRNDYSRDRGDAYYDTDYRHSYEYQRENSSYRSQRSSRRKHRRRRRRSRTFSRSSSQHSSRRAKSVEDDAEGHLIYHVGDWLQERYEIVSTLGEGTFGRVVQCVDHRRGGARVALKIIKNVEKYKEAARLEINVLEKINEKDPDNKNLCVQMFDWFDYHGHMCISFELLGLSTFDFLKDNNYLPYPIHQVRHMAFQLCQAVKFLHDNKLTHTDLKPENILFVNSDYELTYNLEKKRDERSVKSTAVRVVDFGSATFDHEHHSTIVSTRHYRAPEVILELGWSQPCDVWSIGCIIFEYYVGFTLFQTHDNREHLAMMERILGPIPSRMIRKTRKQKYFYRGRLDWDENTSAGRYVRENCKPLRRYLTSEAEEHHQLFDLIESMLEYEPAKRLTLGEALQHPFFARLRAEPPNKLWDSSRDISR

Measured: remaining binding at 0.1 µM

C#Cc1cn([C@@H]2S[C@H](CN=[N+]=[N-])[C@@H](O)[C@H]2O)c2ncnc(N)c12 [compound 7, LJ4827]
< 1%: all assays above
